Results from ChEMBL document CHEMBL5137082, “Discovery of a Novel Vascular Disrupting Agent Inhibiting Tubulin Polymerization and HDACs with Potent Antitumor Effects” (J Med Chem, 2022).
Activity calls are given as the source filed them. The rule behind the calls is not given here.

Tests used:
K562 = experiment: cells; assay type: functional, cell-based; details: Homo sapiens, K562, 72 h
Description: Antiproliferative activity against human K562 cells assessed as inhibition of cell growth measured after 72 hrs by MTT assay

Histone deacetylase 2 = Histone deacetylase 2 (Homo sapiens, UniProt Q92769); experiment: Inhibition of HDAC2 in human HeLa cells using BOC-K(Ac)-AMC as substrate measured after 30 mins by fluorescence based microtiter plate reader assay; assay type: cell-based
MCF7 = experiment: Antiproliferative activity against human MCF7 cells assessed as inhibition of cell growth measured after 72 hrs by MTT assay; assay type: functional, cell-based; details: MCF7, 72 h
[1] = Antiproliferative activity against human HFL1 cells assessed as inhibition of cell growth measured after 72 hrs by MTT assay; assay type: toxicity, cell-based
Histone deacetylase 8 = biological target: T1, Histone deacetylase 8 (Homo sapiens, UniProt Q9BY41); experiment: Inhibition of HDAC8 in human HeLa cells using BOC-K(Ac)-AMC as substrate measured after 30 mins by fluorescence based microtiter plate reader assay; assay type: cell-based
T1 sequence (Q9BY41 whole entry): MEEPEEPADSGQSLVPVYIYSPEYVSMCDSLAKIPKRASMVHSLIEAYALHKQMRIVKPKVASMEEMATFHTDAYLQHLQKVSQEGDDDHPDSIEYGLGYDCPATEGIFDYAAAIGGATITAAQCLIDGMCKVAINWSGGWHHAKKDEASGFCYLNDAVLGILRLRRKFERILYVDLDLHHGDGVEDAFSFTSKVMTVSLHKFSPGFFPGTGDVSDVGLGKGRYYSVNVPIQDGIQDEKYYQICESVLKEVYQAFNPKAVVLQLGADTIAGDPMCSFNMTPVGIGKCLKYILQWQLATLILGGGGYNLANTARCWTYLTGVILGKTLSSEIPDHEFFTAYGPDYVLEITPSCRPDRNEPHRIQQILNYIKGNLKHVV

H22 [2] = experiment: Antiproliferative activity against mouse H22 cells assessed as inhibition of cell growth measured after 72 hrs by MTT assay; assay type: functional, cell-based; details: H22, 72 h
[3] = biological target: T2, Protein deacetylase HDAC6 (Homo sapiens, UniProt Q9UBN7); experiment: Inhibition of HDAC6 in human HeLa cells using BOC-K(Ac)-AMC as substrate measured after 30 mins by fluorescence based microtiter plate reader assay; assay type: cell-based
T2 sequence (Q9UBN7 whole entry): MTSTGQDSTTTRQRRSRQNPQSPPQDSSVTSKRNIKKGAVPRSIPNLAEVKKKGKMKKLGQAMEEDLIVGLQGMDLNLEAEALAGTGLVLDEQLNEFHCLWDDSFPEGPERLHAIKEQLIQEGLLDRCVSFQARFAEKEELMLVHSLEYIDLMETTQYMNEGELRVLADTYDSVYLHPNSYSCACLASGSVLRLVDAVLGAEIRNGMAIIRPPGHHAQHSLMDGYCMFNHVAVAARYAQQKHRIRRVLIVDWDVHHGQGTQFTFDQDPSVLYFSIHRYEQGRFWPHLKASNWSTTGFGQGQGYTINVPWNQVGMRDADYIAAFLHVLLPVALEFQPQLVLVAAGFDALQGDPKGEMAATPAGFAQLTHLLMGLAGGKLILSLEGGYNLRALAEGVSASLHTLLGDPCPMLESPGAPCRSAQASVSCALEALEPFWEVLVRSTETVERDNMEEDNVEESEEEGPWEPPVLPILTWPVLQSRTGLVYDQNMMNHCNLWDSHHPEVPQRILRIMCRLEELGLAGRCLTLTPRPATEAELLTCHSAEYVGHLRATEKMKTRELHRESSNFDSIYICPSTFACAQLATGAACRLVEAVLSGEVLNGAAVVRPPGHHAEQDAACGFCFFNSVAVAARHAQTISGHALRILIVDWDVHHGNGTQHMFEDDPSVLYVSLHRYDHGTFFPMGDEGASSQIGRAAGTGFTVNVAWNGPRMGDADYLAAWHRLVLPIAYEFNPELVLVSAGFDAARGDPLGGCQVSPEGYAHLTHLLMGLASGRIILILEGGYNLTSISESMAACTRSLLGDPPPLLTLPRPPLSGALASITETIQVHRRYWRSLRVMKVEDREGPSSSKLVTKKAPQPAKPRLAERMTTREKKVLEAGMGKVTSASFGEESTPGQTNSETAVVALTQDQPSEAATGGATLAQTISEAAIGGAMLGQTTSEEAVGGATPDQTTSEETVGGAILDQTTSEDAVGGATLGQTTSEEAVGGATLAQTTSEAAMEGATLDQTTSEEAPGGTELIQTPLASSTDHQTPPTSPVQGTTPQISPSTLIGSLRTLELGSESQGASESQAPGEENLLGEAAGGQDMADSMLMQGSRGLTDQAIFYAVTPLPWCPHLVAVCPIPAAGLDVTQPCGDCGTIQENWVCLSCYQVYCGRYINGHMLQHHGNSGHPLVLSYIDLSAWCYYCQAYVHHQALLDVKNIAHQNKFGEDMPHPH

MDA-MB-231 = experiment: Antiproliferative activity against human MDA-MB-231 cells assessed as inhibition of cell growth measured after 72 hrs by MTT assay; assay type: functional, cell-based; details: MDA-MB-231, 72 h
HepG2 = experiment: Antiproliferative activity against human HepG2 cells assessed as inhibition of cell growth measured after 72 hrs by MTT assay; assay type: functional, cell-based; details: HepG2, 72 h
HCT-116 = experiment: Antiproliferative activity against human HCT-116 cells assessed as inhibition of cell growth measured after 72 hrs by MTT assay; assay type: functional, cell-based; details: HCT-116, 72 h
Histone deacetylase 3 = Histone deacetylase 3 (Homo sapiens, UniProt O15379); experiment: Inhibition of HDAC3 in human HeLa cells using BOC-K(Ac)-AMC as substrate measured after 30 mins by fluorescence based microtiter plate reader assay; assay type: cell-based
Histone deacetylase 1 = Histone deacetylase 1 (Homo sapiens, UniProt Q13547); experiment: Inhibition of HDAC1 in human HeLa cells using BOC-K(Ac)-AMC as substrate measured after 30 mins by fluorescence based microtiter plate reader assay; assay type: cell-based
H22 [4] = experiment: Antitumor activity against mouse H22 cells allografted in ICR mouse assessed as reduction in tumor weight at 25 mg/kg, ip administered qd measured after 21 days; assay type: functional; parameters: scale not given: the % may be the effect or the level left; details: time 21 day
H22 [5] = experiment: Antitumor activity against mouse H22 cells allografted in ICR mouse assessed as reduction in tumor weight at 20 mg/kg, iv administered qd measured after 21 days; assay type: functional; parameters: scale not given: the % may be the effect or the level left; details: time 21 day
H22 [6] = experiment: Antivascular activity against mouse H22 cells allografted in ICR mouse assessed as reduction in tumor microvessel density by measuring CD31-positive cells at 20 mg/kg, iv administered qd measured after 21 days by immunohistochemistry analysis; assay type: functional, organism-based; details: time 21.0 day
HUVEC = experiment: Antivascular activity against HUVEC cells assessed as inhibition of capillary-like tubule formation at 30 nM measured after 6 hrs by inverted microscopy; assay type: functional, cell-based; details: Homo sapiens
H22 [7] = experiment: Antivascular activity against mouse H22 cells allografted in ICR mouse assessed as inhibition of blood vessel formation at 20 mg/kg, iv administered qd measured after 21 days by immunohistochemistry analysis; assay type: functional, organism-based; details: time 21.0 day

Chain of Histone deacetylase 3 (O15379 whole entry): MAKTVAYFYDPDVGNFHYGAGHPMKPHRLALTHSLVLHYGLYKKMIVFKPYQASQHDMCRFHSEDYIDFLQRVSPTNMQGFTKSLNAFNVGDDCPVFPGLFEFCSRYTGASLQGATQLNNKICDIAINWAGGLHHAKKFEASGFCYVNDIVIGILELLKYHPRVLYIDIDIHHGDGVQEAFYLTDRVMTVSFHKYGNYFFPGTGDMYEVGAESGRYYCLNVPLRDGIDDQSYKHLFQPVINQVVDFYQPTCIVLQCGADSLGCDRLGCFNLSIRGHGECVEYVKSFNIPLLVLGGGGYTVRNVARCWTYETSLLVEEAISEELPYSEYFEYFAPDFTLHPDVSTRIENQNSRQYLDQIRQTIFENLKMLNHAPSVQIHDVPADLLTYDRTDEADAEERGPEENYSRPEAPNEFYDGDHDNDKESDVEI
Chain of Histone deacetylase 2 (Q92769 whole entry): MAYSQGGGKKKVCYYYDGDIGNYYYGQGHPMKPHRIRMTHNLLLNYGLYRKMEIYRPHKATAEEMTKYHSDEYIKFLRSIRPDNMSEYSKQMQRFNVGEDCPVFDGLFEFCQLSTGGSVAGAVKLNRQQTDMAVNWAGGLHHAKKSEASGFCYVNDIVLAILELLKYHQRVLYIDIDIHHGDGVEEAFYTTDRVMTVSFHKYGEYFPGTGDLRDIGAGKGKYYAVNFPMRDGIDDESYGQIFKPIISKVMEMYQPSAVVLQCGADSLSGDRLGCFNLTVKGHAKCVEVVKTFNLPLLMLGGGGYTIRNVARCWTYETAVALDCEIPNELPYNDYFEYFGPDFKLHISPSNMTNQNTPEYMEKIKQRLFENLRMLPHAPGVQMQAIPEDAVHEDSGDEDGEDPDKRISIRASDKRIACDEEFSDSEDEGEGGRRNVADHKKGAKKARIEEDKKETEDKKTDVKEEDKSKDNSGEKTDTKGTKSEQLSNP
Chain of Histone deacetylase 1 (Q13547 whole entry): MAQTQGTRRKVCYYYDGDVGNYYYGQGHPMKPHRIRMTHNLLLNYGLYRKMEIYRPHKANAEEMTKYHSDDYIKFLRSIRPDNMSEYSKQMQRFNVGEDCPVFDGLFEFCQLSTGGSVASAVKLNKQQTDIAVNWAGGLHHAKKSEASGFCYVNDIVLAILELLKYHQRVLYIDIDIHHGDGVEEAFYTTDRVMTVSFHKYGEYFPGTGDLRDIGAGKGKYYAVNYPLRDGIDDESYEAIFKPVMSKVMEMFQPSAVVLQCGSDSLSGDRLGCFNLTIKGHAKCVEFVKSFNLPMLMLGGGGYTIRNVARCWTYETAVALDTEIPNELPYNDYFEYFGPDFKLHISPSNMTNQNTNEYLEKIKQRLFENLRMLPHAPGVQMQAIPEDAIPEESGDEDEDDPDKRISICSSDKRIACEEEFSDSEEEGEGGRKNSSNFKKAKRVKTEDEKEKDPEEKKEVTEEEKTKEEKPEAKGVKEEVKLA

For `COc1ccc(CNC(=O)c2cc(F)ccc2N2CCOCC2)c(/C=C/C(=O)NO)c1`, the IC50 (K562) was 2000 nM.

For `COc1ccc(CNC(=O)c2cc(OCC(=O)NO)ccc2N2CCOCC2)cc1O`, the IC50 (K562) was greater than 2000 nM.

`COc1ccc(CNC(=O)c2cc(F)ccc2N2CCOCC2)cc1C#CCCCCC(=O)NO` gave an IC50 (K562) of 921 nM.

`COc1ccc(CNC(=O)c2cc(C(=O)NO)ccc2N2CCOCC2)cc1O` showed an IC50 (K562) greater than 2000 nM.

In the case of `COc1ccc(CNC(=O)c2cc(F)ccc2N2CCOCC2)cc1OCCCCCCC(=O)NO`, the IC50 (K562) is reported as 1500 nM.

Compound `COc1ccc(CNC(=O)c2cc(C#CCCCCC(=O)NO)ccc2N2CCOCC2)cc1O` has an IC50 (K562) greater than 2000 nM.

Work on `COc1ccc(CNC(=O)c2cc(C(=O)Nc3ccccc3N)ccc2N2CCOCC2)cc1O` yielded an IC50 (Histone deacetylase 2) of 28000 nM, an IC50 (MCF7) of 105 nM and an IC50 at 72 h [1] of 323 nM. For the same compound, the IC50 (K562) was 114 nM, the IC50 (Histone deacetylase 8) was 2240 nM and the IC50 (H22 [2]) was 96 nM. It also gave an IC50 [3] of 668 nM, an IC50 (MDA-MB-231) of 101 nM and an IC50 (HepG2) of 97 nM. The IC50 (HCT-116) was 77 nM, the IC50 (Histone deacetylase 3) was 530 nM and the IC50 (Histone deacetylase 1) was 16500 nM.

With `COc1ccc(CNC(=O)c2cc(F)ccc2N2CCOCC2)cc1OCCCC(=O)NO` the IC50 (K562) was 1040 nM.

With `COc1cc(/C=C/C(=O)NO)ccc1CNC(=O)c1cc(F)ccc1N1CCOCC1` the IC50 (K562) was 1660 nM.

`COc1cc(CNC(=O)c2cc(F)ccc2N2CCOCC2)ccc1CCC(=O)NO` gave an IC50 (K562) greater than 2000 nM.

Work on `COc1ccc(CNC(=O)c2cc(F)ccc2N2CCOCC2)cc1C(=O)Nc1ccccc1N` yielded an IC50 (K562) greater than 2000 nM.

Compound `COc1ccc(CNC(=O)c2cc(F)ccc2N2CCOCC2)c(CCC(=O)NO)c1` has an IC50 (K562) of 1060 nM.

For `O=C(CCCCCCC(=O)Nc1ccccc1)NO` [VORINOSTAT], the Activity (H22 [4]) was 61%.

Work on `COc1cc(CCC(=O)NO)ccc1CNC(=O)c1cc(F)ccc1N1CCOCC1` yielded an IC50 (K562) greater than 2000 nM.

Work on `COc1ccc(CNC(=O)c2cc(F)ccc2N2CCOCC2)cc1O` yielded an IC50 (MCF7) of 32 nM, an IC50 at 72 h [1] of 126 nM and an Activity (H22 [5]) of 74%. The IC50 (K562) was 17 nM, the Activity (H22 [6]) was “Active” and the IC50 (H22 [2]) was 29 nM. The Activity (HUVEC) was “Active”, the IC50 (MDA-MB-231) was 26 nM and the IC50 (HepG2) was 27 nM. The IC50 (HCT-116) was 29 nM and the Activity (H22 [7]) was “Active”.

Work on `COc1ccc(CNC(=O)c2cc(/C=C/C(=O)NO)ccc2N2CCOCC2)cc1O` yielded an IC50 (K562) greater than 2000 nM.

In the case of `O=C(/C=C/c1cccc(CNC(=O)c2cc(F)ccc2N2CCOCC2)c1)NO`, the IC50 (K562) is reported as 664 nM.

For `O=C(/C=C/c1cc(CNC(=O)c2cc(F)ccc2N2CCOCC2)ccc1O)NO`, the IC50 (MCF7) was 775 nM, the IC50 at 72 h [1] was 3260 nM and the IC50 (K562) was 285 nM. It also gave an IC50 (H22 [2]) of 733 nM, an IC50 (MDA-MB-231) of 642 nM and an IC50 (HepG2) of 700 nM. For the same compound, the IC50 (HCT-116) was 823 nM.

For `COc1ccc(CNC(=O)c2cc(F)ccc2N2CCOCC2)cc1OCC(=O)NO`, the IC50 (Histone deacetylase 2) was 6720 nM, the IC50 (MCF7) was 124 nM and the IC50 at 72 h [1] was 495 nM. The IC50 (K562) was 61 nM, the IC50 (Histone deacetylase 8) was 16500 nM and the IC50 (H22 [2]) was 95 nM. It also gave an IC50 [3] of 2420 nM, an IC50 (MDA-MB-231) of 104 nM and an IC50 (HepG2) of 114 nM. The IC50 (HCT-116) was 105 nM, the IC50 (Histone deacetylase 3) was 3250 nM and the IC50 (Histone deacetylase 1) was 8860 nM.

For `COc1ccc(CNC(=O)c2cc(C#CCCC(=O)NO)ccc2N2CCOCC2)cc1O`, the IC50 (K562) was greater than 2000 nM.

For `COc1ccc(CNC(=O)c2cc(F)ccc2N2CCOCC2)cc1C(=O)NO`, the IC50 (K562) was 1030 nM.

Compound `COc1ccc(CNC(=O)c2cc(OCCCCCCC(=O)NO)ccc2N2CCOCC2)cc1O` has an IC50 (K562) greater than 2000 nM.

Compound `COc1cc(CNC(=O)c2cc(F)ccc2N2CCOCC2)ccc1/C=C/C(=O)NO` has an IC50 (K562) of 1970 nM.

`COc1ccc(CNC(=O)c2cc(OCCCC(=O)NO)ccc2N2CCOCC2)cc1O` gave an IC50 (K562) greater than 2000 nM.

With `COc1ccc(CNC(=O)c2cc(F)ccc2N2CCOCC2)cc1CCC(=O)NO` the IC50 (K562) was greater than 2000 nM.

Work on `COc1ccc(CNC(=O)c2cc(F)ccc2N2CCOCC2)cc1C#CCCC(=O)NO` yielded an IC50 (K562) of 354 nM.
